Results as given in ChEMBL document CHEMBL1201862, “PubChem BioAssay data set” (2004).
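Results reflect a 48-hour exposure of cells in 96-well plates to compound at five concentrations. GI50 marks 50% less growth.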 Calls of active or inactive are those of the source. No stated cut-off is given here; in the data, active = GI50 up to about 1.1 µM and inactive = higher.

Assays:
Assay in all cases: DTP human tumour cell line panel, 48 h
ACHN = test system: ACHN
DU-145 = test system: DU-145
HCC 2998 = test system: HCC 2998
Hs-578T = test system: Hs-578T
M14 = test system: M14
MCF7 = test system: MCF7
MDA-MB-231 = test system: MDA-MB-231
MDA-N = test system: MDA-N
MOLT-4 = test system: MOLT-4
NCI-H460 = test system: NCI-H460
NCI-H522 = test system: NCI-H522
OVCAR-4 = test system: OVCAR-4
OVCAR-5 = test system: OVCAR-5
RXF 393 = test system: RXF 393
SF-268 = test system: SF-268
SK-MEL-2 = test system: SK-MEL-2
SK-MEL-5 = test system: SK-MEL-5
SN12C = test system: SN12C
SR = test system: SR
U-251 = test system: U-251

For `C/C(=N\NC(=S)N1CCCCCCCCCCCC1)c1ccccn1`, the GI50 (ACHN) was 0.215 µM (active), the GI50 (DU-145) was 0.533 µM (active) and the GI50 (HCC 2998) was 0.385 µM (active). The GI50 (Hs-578T) was 0.24 µM (active), the GI50 (M14) was 0.214 µM (active) and the GI50 (MCF7) was 0.0865 µM (active). For the same molecule, the GI50 (MDA-MB-231) was 0.169 µM (active), the GI50 (MDA-N) was 0.126 µM (active) and the GI50 (MOLT-4) was 0.0318 µM (active). The GI50 (NCI-H460) was 0.256 µM (active), the GI50 (NCI-H522) was 0.0855 µM (active) and the GI50 (OVCAR-4) was 0.0491 µM (active). The GI50 (OVCAR-5) was 0.971 µM (active), the GI50 (RXF 393) was 0.0769 µM (active) and the GI50 (SF-268) was 0.225 µM (active). The GI50 (SK-MEL-2) was 0.299 µM (active), the GI50 (SK-MEL-5) was 0.2 µM (active) and the GI50 (SN12C) was 0.238 µM (active). For the same molecule, the GI50 (SR) was 0.0782 µM (active) and the GI50 (U-251) was 0.0673 µM (active).
For `Cc1cc2nc(O)c(C(C)C(=O)c3ccc(Cl)cc3)nc2cc1C` (stereo not given), the GI50 (ACHN) was 54.1 µM (inactive), the GI50 (DU-145) was 53.1 µM (inactive) and the GI50 (HCC 2998) was 13.5 µM (inactive). The GI50 (Hs-578T) was 54.6 µM (inactive), the GI50 (M14) was 45.6 µM (inactive) and the GI50 (MCF7) was 27.5 µM (inactive). The GI50 (MDA-MB-231) was 36.7 µM (inactive), the GI50 (MDA-N) was 17.8 µM (inactive) and the GI50 (MOLT-4) was 27.7 µM (inactive). For the same molecule, the GI50 (NCI-H460) was 29.9 µM (inactive), the GI50 (NCI-H522) was 31.6 µM (inactive) and the GI50 (OVCAR-4) was 31.6 µM (inactive). The GI50 (OVCAR-5) was 56.1 µM (inactive), the GI50 (RXF 393) was 41.3 µM (inactive) and the GI50 (SF-268) was 47.5 µM (inactive). For the same molecule, the GI50 (SK-MEL-2) was > 100 µM (inactive), the GI50 (SK-MEL-5) was 38.1 µM (inactive) and the GI50 (SN12C) was 50.7 µM (inactive). The GI50 (SR) was 22.2 µM (inactive) and the GI50 (U-251) was 36.2 µM (inactive).
In the case of `CCCCC(=O)Nc1ccc2cc(C(=O)OC)c(Cl)nc2n1`, the GI50 (ACHN) is reported as > 100 µM (inactive), the GI50 (DU-145) is reported as 3.11 µM (inactive) and the GI50 (HCC 2998) is reported as 10.9 µM (inactive). For the same molecule, the GI50 (Hs-578T) was 4.7 µM (inactive), the GI50 (M14) was > 100 µM (inactive) and the GI50 (MCF7) was 13.3 µM (inactive). For the same molecule, the GI50 (MDA-MB-231) was > 100 µM (inactive), the GI50 (MDA-N) was > 100 µM (inactive) and the GI50 (MOLT-4) was > 100 µM (inactive). The GI50 (NCI-H460) was 44.2 µM (inactive), the GI50 (NCI-H522) was > 100 µM (inactive) and the GI50 (OVCAR-4) was > 100 µM (inactive). The GI50 (OVCAR-5) was > 100 µM (inactive), the GI50 (RXF 393) was > 100 µM (inactive) and the GI50 (SF-268) was > 100 µM (inactive). For the same molecule, the GI50 (SK-MEL-2) was > 100 µM (inactive), the GI50 (SK-MEL-5) was > 90.8 µM (inactive) and the GI50 (SN12C) was 50 µM (inactive). The GI50 (SR) was > 100 µM (inactive) and the GI50 (U-251) was 28.6 µM (inactive).
With `CC(C)(C)c1cc([N+](=O)[O-])cc([N+](=O)[O-])c1O` [DINOTERB] the GI50 (ACHN) was > 10 µM (inactive), the GI50 (DU-145) was 9.59 µM (inactive) and the GI50 (HCC 2998) was > 10 µM (inactive). For the same molecule, the GI50 (Hs-578T) was 8.71 µM (inactive), the GI50 (M14) was > 10 µM (inactive) and the GI50 (MCF7) was > 10 µM (inactive). The GI50 (MDA-MB-231) was > 10 µM (inactive), the GI50 (MDA-N) was > 10 µM (inactive) and the GI50 (MOLT-4) was > 10 µM (inactive). The GI50 (NCI-H460) was 7.98 µM (inactive), the GI50 (NCI-H522) was > 10 µM (inactive) and the GI50 (OVCAR-4) was > 10 µM (inactive). The GI50 (OVCAR-5) was > 10 µM (inactive), the GI50 (RXF 393) was > 10 µM (inactive) and the GI50 (SF-268) was > 10 µM (inactive). For the same molecule, the GI50 (SK-MEL-2) was > 10 µM (inactive), the GI50 (SK-MEL-5) was 6.47 µM (inactive) and the GI50 (SN12C) was > 10 µM (inactive). For the same molecule, the GI50 (SR) was > 10 µM (inactive) and the GI50 (U-251) was > 10 µM (inactive).
`NCCCCNCCCNC(=O)CNC(=O)CC(O)C(N)CCCC(NC(=O)C(CN)NC(=O)C(O)CNC(=O)CC(N)c1ccc(O)cc1)C(=O)O` (stereo not given) was tested, and the GI50 (ACHN) was > 10 µM (inactive), the GI50 (DU-145) was > 10 µM (inactive) and the GI50 (HCC 2998) was > 10 µM (inactive). The GI50 (Hs-578T) was > 10 µM (inactive), the GI50 (M14) was > 10 µM (inactive) and the GI50 (MCF7) was > 10 µM (inactive). The GI50 (MDA-MB-231) was > 10 µM (inactive), the GI50 (MDA-N) was > 10 µM (inactive) and the GI50 (MOLT-4) was > 10 µM (inactive). The GI50 (NCI-H460) was > 10 µM (inactive), the GI50 (NCI-H522) was > 10 µM (inactive) and the GI50 (OVCAR-4) was > 10 µM (inactive). The GI50 (OVCAR-5) was > 10 µM (inactive), the GI50 (RXF 393) was > 10 µM (inactive) and the GI50 (SF-268) was > 10 µM (inactive). For the same molecule, the GI50 (SK-MEL-2) was > 10 µM (inactive), the GI50 (SK-MEL-5) was > 10 µM (inactive) and the GI50 (SN12C) was > 10 µM (inactive). For the same molecule, the GI50 (SR) was > 10 µM (inactive) and the GI50 (U-251) was > 10 µM (inactive).
In the case of `O=S(=O)(O)c1cc(S(=O)(=O)O)c2c(/N=N/c3cccc4ccccc34)c(O)ccc2c1`, the GI50 (ACHN) is reported as > 100 µM (inactive), the GI50 (DU-145) is reported as > 100 µM (inactive) and the GI50 (HCC 2998) is reported as > 100 µM (inactive). The GI50 (Hs-578T) was > 100 µM (inactive), the GI50 (M14) was > 100 µM (inactive) and the GI50 (MCF7) was > 100 µM (inactive). The GI50 (MDA-MB-231) was > 100 µM (inactive), the GI50 (MDA-N) was > 100 µM (inactive) and the GI50 (MOLT-4) was > 100 µM (inactive). The GI50 (NCI-H460) was > 100 µM (inactive), the GI50 (NCI-H522) was > 100 µM (inactive) and the GI50 (OVCAR-4) was > 100 µM (inactive). The GI50 (OVCAR-5) was > 100 µM (inactive), the GI50 (RXF 393) was > 100 µM (inactive) and the GI50 (SF-268) was > 100 µM (inactive). The GI50 (SK-MEL-2) was > 100 µM (inactive), the GI50 (SK-MEL-5) was > 100 µM (inactive) and the GI50 (SN12C) was > 100 µM (inactive). The GI50 (SR) was > 100 µM (inactive) and the GI50 (U-251) was > 100 µM (inactive).
For `C[C@]12CCC3C4=C(CCC3C1CCC2=O)C(=O)[C@H]1O[C@H]1C4=O` (stereo not given in full), the GI50 (ACHN) was 2.57 µM (inactive), the GI50 (DU-145) was 3.12 µM (inactive) and the GI50 (HCC 2998) was 1.9 µM (inactive). For the same molecule, the GI50 (Hs-578T) was 9.51 µM (inactive), the GI50 (M14) was 4.05 µM (inactive) and the GI50 (MCF7) was 2.18 µM (inactive). The GI50 (MDA-MB-231) was 1.8 µM (inactive), the GI50 (MDA-N) was 7.18 µM (inactive) and the GI50 (MOLT-4) was 0.785 µM (active). The GI50 (NCI-H460) was 7.46 µM (inactive), the GI50 (NCI-H522) was 1.84 µM (inactive) and the GI50 (OVCAR-4) was 3.05 µM (inactive). The GI50 (OVCAR-5) was 3.77 µM (inactive), the GI50 (RXF 393) was 1.6 µM (inactive) and the GI50 (SF-268) was 2.31 µM (inactive). The GI50 (SK-MEL-2) was 12.2 µM (inactive), the GI50 (SK-MEL-5) was 10 µM (inactive) and the GI50 (SN12C) was 2.64 µM (inactive). The GI50 (SR) was 0.538 µM (active) and the GI50 (U-251) was 2.75 µM (inactive).
